Key:
[1] = target: T1, PNPO (pyridoxine-5'-phosphate oxidase) (Homo sapiens, UniProt Q9NVS9); assay: microscale thermophoresis (MST) with RED-NHS-labelled purified protein; type: binding
T1 construct: PNPO WT, 6×His tag (pet-28a)
T1 sequence (Q9NVS9 1-261): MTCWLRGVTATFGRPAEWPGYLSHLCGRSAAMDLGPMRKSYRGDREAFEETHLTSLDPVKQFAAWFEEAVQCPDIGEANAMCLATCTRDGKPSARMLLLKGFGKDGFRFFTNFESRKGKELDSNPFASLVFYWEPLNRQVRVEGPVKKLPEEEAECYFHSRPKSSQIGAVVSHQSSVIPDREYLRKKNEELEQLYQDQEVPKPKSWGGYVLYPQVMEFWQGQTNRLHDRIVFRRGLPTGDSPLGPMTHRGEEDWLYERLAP

[2] = target: T1, PNPO (pyridoxine-5'-phosphate oxidase); assay: microscale thermophoresis (MST); also HuProt […] proteome microarray with FITC-labelled celastrol; type: binding

Kd [1] [nM] | SMILES | microscale thermophoresis (MST); also HuProt 20K proteome microarray with FITC-l [2]
180 ± 90 | CC1=NN(c2ccc(C)c(C)c2)C(=O)/C1=N\Nc1cccc(-c2cccc(C(=O)O)c2)c1O [Eltrombopag] | –
– | CC1=C(O)C(=O)C=C2C1=CC=C1[C@@]2(C)CC[C@@]2(C)[C@@H]3C[C@](C)(C(=O)O)CC[C@]3(C)CC[C@]12C [celastrol] | MST analysis confirmed a direct interaction between celastrol and PNPO
